Source: US12385009B2, “Methods and compositions for generating oligodendrocyte progenitor cells” (Trailhead Biosystems Inc., priority 2021, dated 2025)
Entries after “also recorded” stand apart in the source; their conditions may differ.

Experiments:
[1] = system: human pluripotent stem cells; test: HD-DoE #1: 8-factor experiment, gene expression after 3-day treatment with effectors; assay type: cell-based; details: 8-factor model
From the text: (§1) This example utilizes a method of High-Dimensional Design of Experiments (HD-DoE), as previously described in Bukys et al. (2020) Iscience 23:101346. The method employs computerized design geometries to simultaneously test multiple process inputs and offers mathematical modeling of a deep effector/response space. The method allows for finding combinatorial signaling inputs that control a complex process, such as during cell differentiation. It allows testing of multiple plausible critical process parameters, as such parameters impact output responses, such as gene expression. Because gene expression provides hallmark features of the phenotype of, for example, a human cell, the method can be applied to identify, and understand, which signaling pathways control cell fate. In the current example, the HD-DOE method was applied with the intent to find conditions for induction of oligodendrocyte progenitor-expressed genes, directly from the pluripotent stem cell state.
(§2) Specifically, to develop a novel method to generate oligodendrocytes, the impact of agonists and antagonists of multiple signaling pathways (herein called effectors) were tested on expression of two sets of 53 pre-selected genes after a 3-day treatment. These effectors are small molecules that are commonly used during stepwise differentiation of stem cells to specific fates. Choice of the effectors were based on current literature on neural induction in anterior ectoderm and differentiation of stem cells to oligodendrocytes.
To test the effectors, experiments with at least 8 factors were designed that can assess the response of cells to 48 or more different combinations of effectors in a range of concentrations. To analyze the models, we focused on expression of genes expressed during early development of anterior neuroectoderm and oligodendrocytes including NKX2-2, OLIG2, OLIG1, and PDGFRA. The impact of each effector on gene expression level is defined by a parameter called factor contribution that is calculated for each effector during the modeling.
This model tested 8 factors: PD0325901, MK2206, TTNPB, SC79, MHY1485, ZM336372, AGN193109 and AZD3147.

[2] = system: human pluripotent stem cells; test: HD-DoE #2: 13-factor experiment, differentiation toward anterior neuroectoderm (OTX2, FEZF2 expression); assay type: cell-based; details: for contribution to expression of OTX2 (in words): 13-factor model of high expression of OTX2; for effect on expression of FEZF2 (dynamic profiling analysis) / impact on expression level of OTX2 (dynamic profiling analysis): 13-factor model
From the text: as §1, §2
To further enhance the conditions for oligodendrocyte differentiation from pluripotency, we performed an additional HD-DoE experiment. We obtained additional gene regulatory models that were used for preparation of a differentiation protocol. The basis of this was a 13-factor HD-DoE experiment with focus on initiation of differentiation of cells toward anterior neuroectoderm. In this model, we focused on expression of FEZF2 and OTX2.

Compound | effect on expression of targeted oligodendrocyte genes (NKX2-2, OLIG2) [1] | contribution to expression of OTX2 (in words) [2] | further results
C/C(=C\c1ccc(C(=O)O)cc1)c1ccc2c(c1)C(C)(C)CCC2(C)C [TTNPB] | significant positive effect |  | 
O=C(NOC[C@H](O)CO)c1ccc(F)c(F)c1Nc1ccc(I)cc1F [PD0325901] | negatively impacting; also recorded: negative effect | positive contribution | 
NC1(c2ccc(-c3nc4ccn5c(=O)[nH]nc5c4cc3-c3ccccc3)cc2)CCC1 [MK2206] | negative effect |  | 
COc1ccc2c(c1)c(C1=C(c3c[nH]c4ccccc34)C(=O)NC1=O)cn2CCCN(C)C [Go6983] |  | positive contribution | 
CCOC(=O)C1=C(N)Oc2ccc(Cl)cc2C1C(C#N)C(=O)OCC (centres unmarked) [SC79] | significant positive effect |  | 
Cc1c[nH]c(-c2cnc(NCCNc3ccc(C#N)cn3)nc2-c2ccc(Cl)cc2Cl)n1 [CHIR99021] |  | positive contribution | 
O=[N+]([O-])c1ccc(Nc2nc(N3CCOCC3)nc(N3CCOCC3)n2)cc1 [MHY1485] | significant positive effect |  | 
Oc1nc(-c2ccc(C(F)(F)F)cc2)nc2c1CSCC2 [XAV939] |  |  | effect on expression of FEZF2 (dynamic profiling analysis) [2]: significant positive effects; impact on expression level of OTX2 (dynamic profiling analysis) [2]: no negative impact
Cc1ccc(NC(=O)c2cccc(N(C)C)c2)cc1NC(=O)c1ccc(O)cc1 [ZM336372] | negatively impacting |  | 
c1ccc2c(-c3cnn4cc(-c5ccc(N6CCNCC6)cc5)cnc34)ccnc2c1 [LDN193189] |  | positive contribution | 
c1ccc2c(Oc3nc(Nc4ccc(N5CCOCC5)cc4)c4ncn(C5CCCCC5)c4n3)cccc2c1 [Purmorphamine] |  |  | effect on expression of FEZF2 (dynamic profiling analysis) [2]: significant positive effects; impact on expression level of OTX2 (dynamic profiling analysis) [2]: no negative impact
